Patent publication US12612441B2, “Polypeptide and therapeutic uses thereof” (Vitalixir (Beijing) Co., Ltd, priority 2019, dated 2026)
Where no end group is shown, it is not given here. [ ]: non-standard residue; d: D form. Aib = CC(C)(N)C(=O)O

Legend:
db/db mice [1] = test: Blood glucose lowering in db/db mice (Example 8); type: in vivo; settings: db/db male mice, 30 nmol/kg subcutaneous single dose, blood glucose 0-10 hours, AUC, vs PBS control; FIG. 2
Experimental: The feeding conditions of db/db mice were the same as described in Example 7. The db/db male mice (8 weeks old) were given one week to acclimate to the environmental conditions of the test facility. Baseline blood glucose and body weight were recorded for three days before the experiment (−3 day to −1 day). The mice were randomly grouped based on their three-day blood glucose and body weight, with 6 mice in each group. Mice were injected subcutaneously with PBS (5 ml/kg, control group) or the peptide compounds 31, 35, 38, 44 and 49 (30 nmol/kg) respectively at 10:00 in the morning. Blood was collected at 0 hour before drug administration, and 1, 2, 4, 6, 8, and 10 hours after administration, and blood glucose was measured using a OneTouch glucose meter (Johnson & Johnson) and test strips. Blood glucose curves were plotted with time as the abscissa and the blood glucose value at different time point as the ordinate, and the areas under the curve (AUC) were calculated.

db/db mice [2] = test: Blood glucose lowering in db/db mice (Example 7); type: in vivo; settings: db/db male mice, 30 nmol/kg subcutaneous single dose, blood glucose 0-10 hours, AUC, vs PBS control; FIG. 1
Experimental: db/db mice were housed in animal feeding rooms with strictly controlled environmental conditions. The temperature in the feeding room was maintained at 20-24° C. and the humidity was maintained at 40-70%. The temperature and humidity of the feeding room were monitored in real time by a temperature and humidity meter, and the temperature and humidity were recorded twice a day (once in the morning and once in the afternoon). The lighting in the animal feeding room was controlled by an electronic timing light-on system. The lights were turned on for 12 hours and turned off for 12 hours every day (on at 7:00 in the morning and off at 19:00 in the afternoon). During the experiment, the mice were individually housed in each cage, and toys were provided to the mice in each cage. During the experiment mice had free access to water. The db/db male mice (6 weeks old) were given one week to acclimate to the environmental conditions of the test facility. Baseline blood glucose and body weight were recorded for three days before the test (−3 day to −1 day). The mice were randomly grouped based on three-day blood glucose and body weight, with 6 mice in each group. The mice were injected subcutaneously with PBS (5 ml/kg, control group) or the peptide compounds 1, 2, 8, 16, 18, 19, 24, and 36 (30 nmol/kg) respectively at 10:00 am. Blood was collected at 0 hour before drug administration, and 1, 2, 4, 6, 8 and 10 hours after administration, and blood glucose was measured using a OneTouch glucose meter (Johnson & Johnson) and test strips. Blood glucose curves were plotted with time as the abscissa and the blood glucose value at different time point as the ordinate, the areas under the curve (AUC) were calculated, and the hypoglycemic effects and duration of time of the peptide compounds were compared.

| Substance | blood glucose (db/db mice [1]) | blood glucose (db/db mice [2]) |
| --- | --- | --- |
| Y(aib)EGTFTSDLSI(aib)LEKEAVKLFIEWLLAGGPSSGAPPPK-NH2 (YXEGTFTSDLSIXLEKEAVKLFIEWLLAGGPSSGAPPPK; Aib; C-terminal amide; …ON (2)..(2) X=aminoisobutyric aicd; …ON (13)..(13) X=aminoisobutyric aicd; …ON (39)..(39) AMIDATION, C-termianl amidation) [Compound 49] | significantly reduced the blood glucose |  |
| Y(aib)EGTFTSDLSI(aib)LEKEAVRLFIEWLLAGGPSSGAPPPC-NH2 (YXEGTFTSDLSIXLEKEAVRLFIEWLLAGGPSSGAPPPC; Aib; C-terminal amide; MOD_RES (2)..(2) X=aminoisobutyric aicd; MOD_RES (13)..(13) X=aminoisobutyric aicd; MOD_RES (39)..(39) AMIDATION, C-termianl amidation) [Compound 38] | significantly reduced the blood glucose |  |
| Y(aib)EGTFTSDLSIALEKEAVKLFIEWLLAGGPSSGAPPPK-NH2 (Y[Aib]EGTFTSDLSIALEKEAVKLFIEWLLAGGPSSGAPPPK-NH2; N-terminus assumed; SMILES CC[C@H](C)[C@H](NC(=O)[C@H](CO)NC(=O)[C@H](CC(C)C)NC(=O)[C@H](CC(=O)O)NC(=O)[C@H](CO)NC(=O)[C@@H](NC(=O)[C@H](Cc1ccccc1)NC(=O)[C@@H](NC(=O)CNC(=O)[C@H](CCC(=O)O)NC(=O)C(C)(C)NC(=O)[C@@H](N)Cc1ccc(O)cc1)[C@@H](C)O)[C@@H](C)O)C(=O)N[C@@H](C)C(=O)N[C@@H](CC(C)C)C(=O)N[C@@H](CCC(=O)O)C(=O)N[C@@H](CCCCN)C(=O)N[C@@H](CCC(=O)O)C(=O)N[C@@H](C)C(=O)N[C@H](C(=O)N[C@@H](CCCCN)C(=O)N[C@@H](CC(C)C)C(=O)N[C@@H](Cc1ccccc1)C(=O)N[C@H](C(=O)N[C@@H](CCC(=O)O)C(=O)N[C@@H](Cc1c[nH]c2ccccc12)C(=O)N[C@@H](CC(C)C)C(=O)N[C@@H](CC(C)C)C(=O)N[C@@H](C)C(=O)NCC(=O)NCC(=O)N1CCC[C@H]1C(=O)N[C@@H](CO)C(=O)N[C@@H](CO)C(=O)NCC(=O)N[C@@H](C)C(=O)N1CCC[C@H]1C(=O)N1CCC[C@H]1C(=O)N1CCC[C@H]1C(=O)N[C@@H](CCCCN)C(N)=O)[C@@H](C)CC)C(C)C) [Compound 44] | significantly reduced the blood glucose |  |
| Y(aib)EGTFTSDYSIYLEKEAVRLFVNWLIAGGPSSGAPPPS-NH2 (Y[Aib]EGTFTSDYSIYLEKEAVRLFVNWLIAGGPSSGAPPPS-NH2; N-terminus assumed; SMILES CC[C@H](C)[C@H](NC(=O)[C@H](CC(C)C)NC(=O)[C@H](Cc1c[nH]c2ccccc12)NC(=O)[C@H](CC(N)=O)NC(=O)[C@@H](NC(=O)[C@H](Cc1ccccc1)NC(=O)[C@H](CC(C)C)NC(=O)[C@H](CCCNC(=N)N)NC(=O)[C@@H](NC(=O)[C@H](C)NC(=O)[C@H](CCC(=O)O)NC(=O)[C@H](CCCCN)NC(=O)[C@H](CCC(=O)O)NC(=O)[C@H](CC(C)C)NC(=O)[C@H](Cc1ccc(O)cc1)NC(=O)[C@@H](NC(=O)[C@H](CO)NC(=O)[C@H](Cc1ccc(O)cc1)NC(=O)[C@H](CC(=O)O)NC(=O)[C@H](CO)NC(=O)[C@@H](NC(=O)[C@H](Cc1ccccc1)NC(=O)[C@@H](NC(=O)CNC(=O)[C@H](CCC(=O)O)NC(=O)C(C)(C)NC(=O)[C@@H](N)Cc1ccc(O)cc1)[C@@H](C)O)[C@@H](C)O)[C@@H](C)CC)C(C)C)C(C)C)C(=O)N[C@@H](C)C(=O)NCC(=O)NCC(=O)N1CCC[C@H]1C(=O)N[C@@H](CO)C(=O)N[C@@H](CO)C(=O)NCC(=O)N[C@@H](C)C(=O)N1CCC[C@H]1C(=O)N1CCC[C@H]1C(=O)N1CCC[C@H]1C(=O)N[C@@H](CO)C(N)=O) [Compound 8] |  | significantly reduce blood glucose |
